Assay [1] has as its system Botrytis cinerea. As to the kind of experiment: Botrytis cinerea rot on wounded apple and banana fruit. Set-up: key: Different results are indicated by different letters; Different results are indicated by different letters; Different results are indicated by different letters; Different results are indicated by different letters; Different results are indicated by different letters. In kind it is in vivo. An excerpt:
Tested fruit: apple (cv Elstar) and a banana (cv Cavendish) from organic origin/SKAL certified. SKAL is a semi-governmental Dutch organization that controls organic production in the Netherlands.
Used pathogen: Botrytis cinerea spore-suspension containing ˜3×10^5 propagules (spores)/ml.
Application: Fruit peel was damaged with a cork borer, depth ˜0.5 cm into the fruit, 2 wounds per apple fruit; 2 wounds per banana fruit. 30 microliters of a freshly prepared spore suspension of B. cinerea (estimated 3×10^5 spores/ml) were applied by pipette onto each wound. Subsequently, the spore-suspension was allowed to air-dry for 3 hours. 50 microliters of fungicide suspensions 1-6 were applied by pipette to each wound.
All fruits were kept at room temperature (20° C.).
Replicates: All treatments (1-6) were performed on 6 individual apples and 6 individual bananas with 2 wounds each resulting in 12 wounds per fruit per treatment. The recorded observed antifungal activity is the reduction (in percentages) of the average surface of the rot as observed in the 12 wounds compared to the rot surface of the untreated control.
Observation: All wounds were inspected daily for visual symptoms of fruit rot and/or fungus growth. Rot surface was determined after 5 and 7 days (see Tables 1, 2 and 3). The recorded observed antifungal activity is the surface of the rot.

Assay [2] concerns Penicillium discolor. Nature of the assay: Penicillium discolor rot on wounded apples cv Gala. It is filed as in vivo. As to conditions: rot surface area vs untreated control, phosphite 16 mM, natamycin 100 ppm. The method, then: Tested fruit: apples cv Gala from organic origin/SKAL certified. SKAL is a semi-governmental Dutch organization that controls organic production in the Netherlands. Wounds of the apples were checked at day 3. All phosphite concentrations were tested at a concentration of 16 mM of phosphonate. Natamycin (95%, Freda) solo and in combination was tested at a concentration of 100 ppm. […] Used pathogen: Penicillium discolor spore-suspension containing 4*10E6 spores/ml. Application: The fruit peel of the apple was damaged with a cork borer, ø4 mm and depth ˜0.5 cm into the fruit, with 2 wounds per apple. 40 microliter of a freshly prepared spore suspension of P. discolor was applied by pipette onto each wound. Subsequently, the spore-suspension was allowed to air-dry for 4 hours. Then, 50 microliter of a treatment as presented in the list above was applied by pipette to each wound. All fruits were kept at room temperature (20° C.). Wounds of the apples were checked after 4, 7 and 9 days of incubation. The efficacy is calculated by measuring the surface area (square mm) of the rot on the apples, and compared to the untreated control (see Table 4). Replicates: All treatments for the apple experiment were performed on six individual apples with two wounds each resulting in 12 wounds per treatment.

For `C#CCOc1ccc(CCNC(=O)C(OCC#C)c2ccc(Cl)cc2)cc1OC` (racemic) [mandipropamid, (RS)-2-(4-chloorfenyl)-N-[3-methoxy-4-(prop-2-ynyloxy)fenethyl]-2-(prop-2-ynyloxy)acetamide], the “Effect on fungicidal attack of Botrytis on apple and banana” value (from here on “Effect on fungicidal attack of Botrytis”) in assay [1] (Table 1, phosphonate Control, mandipropamid 1/16 label) is “e”; in assay [1] (Table 1, phosphonate Control, mandipropamid ¼ label), “e”; in assay [1] (Table 1, phosphonate Control, mandipropamid ½ label) it was “d”; in assay [1] (Table 1, phosphonate Control, mandipropamid ⅛ label), “e”; in assay [1] (Table 3, Na2HPO3 part, phosphonate Control, mandipropamid ¼ label), “d”; in assay [1] (Table 3, Na2HPO3 part, phosphonate Control, mandipropamid ⅛ label), “e”. For the same molecule, the “Effect on fungicidal attack of Botrytis” value was “e” in assay [1] (Table 3, NaH2PO3 part, phosphonate Control, mandipropamid ¼ label) and “d” in assay [1] (Table 3, NaH2PO3 part, phosphonate Control, mandipropamid ½ label).
On to `COCC(=O)N(c1c(C)cccc1C)C(C)C(=O)OC` (racemic) [mefenoxam, methyl N-(methoxyacetyl)-N-(2,6-xylyl)-DL-alaninate], for which the “Effect on fungicidal attack of Botrytis” value in assay [1] (Table 2, phosphonate Control, mefenoxam ¼ label) was “e”.
Turning to `O=[PH]([O-])O.[Na+]` [NaH2PO3, monosodium dihydrogen phosphite], the “Effect on fungicidal attack of Botrytis” value in assay [1] (Table 3, NaH2PO3 part, Concentration 1, mandipropamid control) is “d”; in assay [1] (Table 3, NaH2PO3 part, Concentration 2, mandipropamid control) it was “c”; in assay [1] (Table 3, NaH2PO3 part, Concentration 3, mandipropamid control), “b”.
In the case of `C[C@@H]1C/C=C/C=C/C=C/C=C/[C@H](OC2O[C@H](C)[C@@H](O)[C@H](N)[C@@H]2O)C[C@@H]2O[C@](O)(C[C@@H](O)C[C@H]3O[C@@H]3/C=C/C(=O)O1)C[C@H](O)[C@H]2C(=O)O` (stereo partly drawn) [Natamycin, (1R,3S,5R,7R, 8E,12R,14E,16E,18E,20E,22R,24S,25R,26S)-22-[(3-amino-3,6-dideoxy-D-mannopyranosyl)oxy]-1,3,26-trihydroxy-12-methyl-10-oxo-6,11,28-trioxatricyclo[22.3.1.05,7]octacosa-8,14,16,18,20-pentaene-25-carboxylic acid], the “Efficacy (%)” value amounted to 23% in assay [2] (Day 4), 10% in assay [2] (Day 7) and 9% in assay [2] (Day 9).

Values taken from patent publication US20190254285A1, “SODIUM PHOSPHITE COMBINATIONS” (priority 2016, published 2019).
